Data set [1] relates to human megakaryocyte progenitors. Nature of the data set: Growth of human megakaryocyte progenitors (surrogate assay for platelet depletion). It counts as cell-based. Here is the method: Compounds of the invention were evaluated for their effect on the growth of human megakaryocyte progenitors (surrogate assay for platelet depletion). Human CD34+ cells were grown in a collagen-based gel (Megacult-C, Stemcell Technologies). […] 100% indicates no difference in cell viability relative to the DMSO treated cells. […] This is the desired effect.

The target in data set [2] is T1, HDAC2 (Homo sapiens (Human), UniProt Q92769).
T1 sequence (Q92769 whole entry): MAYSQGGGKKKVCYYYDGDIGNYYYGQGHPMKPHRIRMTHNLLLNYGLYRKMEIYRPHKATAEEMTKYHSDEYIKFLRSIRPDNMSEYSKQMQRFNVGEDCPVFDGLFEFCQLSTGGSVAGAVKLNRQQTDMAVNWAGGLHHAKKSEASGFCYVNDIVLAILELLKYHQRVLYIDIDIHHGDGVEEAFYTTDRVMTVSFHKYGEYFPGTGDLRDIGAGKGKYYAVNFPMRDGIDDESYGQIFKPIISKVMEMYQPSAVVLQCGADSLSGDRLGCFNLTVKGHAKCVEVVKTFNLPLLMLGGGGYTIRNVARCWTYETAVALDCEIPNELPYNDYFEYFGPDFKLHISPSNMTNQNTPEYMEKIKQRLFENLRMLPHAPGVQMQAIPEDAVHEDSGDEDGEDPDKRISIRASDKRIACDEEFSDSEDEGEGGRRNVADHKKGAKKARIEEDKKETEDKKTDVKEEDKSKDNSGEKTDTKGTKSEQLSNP
For data set [3], the target named is T2, HDAC1 (Homo sapiens (Human), UniProt Q13547). The experiment in a line: Kinetics of the inhibition of HDAC1. As to conditions: HDAC1 residence.
T2 sequence (Q13547 whole entry): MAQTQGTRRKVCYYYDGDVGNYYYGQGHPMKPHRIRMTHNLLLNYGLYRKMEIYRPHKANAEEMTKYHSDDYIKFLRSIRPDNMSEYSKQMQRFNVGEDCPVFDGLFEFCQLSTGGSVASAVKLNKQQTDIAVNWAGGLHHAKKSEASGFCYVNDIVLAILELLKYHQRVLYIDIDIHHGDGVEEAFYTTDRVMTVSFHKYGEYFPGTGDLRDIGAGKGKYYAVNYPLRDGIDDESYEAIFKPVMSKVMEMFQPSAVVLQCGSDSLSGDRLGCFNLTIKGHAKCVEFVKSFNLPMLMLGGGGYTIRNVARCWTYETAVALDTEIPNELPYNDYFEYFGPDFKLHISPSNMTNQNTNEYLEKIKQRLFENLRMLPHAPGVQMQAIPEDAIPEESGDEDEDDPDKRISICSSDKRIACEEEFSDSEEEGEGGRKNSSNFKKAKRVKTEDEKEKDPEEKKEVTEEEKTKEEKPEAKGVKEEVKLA
Experimental: HDAC1 inactivation kinetic constant was determined by curve-fitting of the plot to a first-order rate equation.
The target in data set [4] is T2, HDAC1. The experiment in a line: Caliper HDAC enzymatic endpoint assay, HDAC1. Format: biochemical. As to conditions: read-out: HDAC1 IC50 3 h Prein; Table 2, 3 h preincubation.
Experimental: (§1) Substrate A was prepared as 2 mM in DMSO. Its final concentration in the assay for HDACs 1, 2, 3, 6 is 2 μM.
(§2) Below is the HDAC and Substrate concentration used in this assay.
Data set [5] concerns the target T1, HDAC2. Nature of the data set: Caliper HDAC enzymatic endpoint assay, HDAC2. It counts as biochemical. As to conditions: read-out: HDAC2 IC50 3 h Prein; Table 2, 3 h preincubation.
Experimental: as §1, §2
Data set [6] deals with T3, HDAC3 (Homo sapiens (Human), UniProt O15379). The experiment in a line: Caliper HDAC enzymatic endpoint assay, HDAC3. As to conditions: read-out: HDAC3 IC50 3 h Prein; Table 2, 3 h preincubation. It counts as biochemical.
T3 sequence (O15379 whole entry): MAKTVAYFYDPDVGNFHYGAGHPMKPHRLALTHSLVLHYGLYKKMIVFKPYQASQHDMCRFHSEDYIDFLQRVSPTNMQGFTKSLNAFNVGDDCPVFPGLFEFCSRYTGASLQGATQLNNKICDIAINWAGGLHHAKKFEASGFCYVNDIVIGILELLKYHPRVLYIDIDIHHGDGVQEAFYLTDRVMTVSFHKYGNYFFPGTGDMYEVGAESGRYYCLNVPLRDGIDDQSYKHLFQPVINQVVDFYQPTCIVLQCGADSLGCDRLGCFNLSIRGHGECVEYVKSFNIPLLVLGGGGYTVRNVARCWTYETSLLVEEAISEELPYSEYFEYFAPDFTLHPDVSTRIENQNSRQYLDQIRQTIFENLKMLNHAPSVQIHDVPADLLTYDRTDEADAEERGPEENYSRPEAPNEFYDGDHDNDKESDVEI
T3 sequence (Q9Y618 395-489 partner): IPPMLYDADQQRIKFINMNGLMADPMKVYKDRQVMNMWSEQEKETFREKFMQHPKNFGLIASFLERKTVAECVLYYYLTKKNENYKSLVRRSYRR
Experimental: as §1, §2
The target of data set [7] is HDAC4 (Homo sapiens (Human), UniProt P56524). Nature of the data set: Caliper HDAC enzymatic endpoint assay, HDAC4. It counts as biochemical. As to conditions: Table 2C; read-out: HDAC4 IC50 after 0 hr preincubation.
Chain of HDAC4 (P56524 whole entry): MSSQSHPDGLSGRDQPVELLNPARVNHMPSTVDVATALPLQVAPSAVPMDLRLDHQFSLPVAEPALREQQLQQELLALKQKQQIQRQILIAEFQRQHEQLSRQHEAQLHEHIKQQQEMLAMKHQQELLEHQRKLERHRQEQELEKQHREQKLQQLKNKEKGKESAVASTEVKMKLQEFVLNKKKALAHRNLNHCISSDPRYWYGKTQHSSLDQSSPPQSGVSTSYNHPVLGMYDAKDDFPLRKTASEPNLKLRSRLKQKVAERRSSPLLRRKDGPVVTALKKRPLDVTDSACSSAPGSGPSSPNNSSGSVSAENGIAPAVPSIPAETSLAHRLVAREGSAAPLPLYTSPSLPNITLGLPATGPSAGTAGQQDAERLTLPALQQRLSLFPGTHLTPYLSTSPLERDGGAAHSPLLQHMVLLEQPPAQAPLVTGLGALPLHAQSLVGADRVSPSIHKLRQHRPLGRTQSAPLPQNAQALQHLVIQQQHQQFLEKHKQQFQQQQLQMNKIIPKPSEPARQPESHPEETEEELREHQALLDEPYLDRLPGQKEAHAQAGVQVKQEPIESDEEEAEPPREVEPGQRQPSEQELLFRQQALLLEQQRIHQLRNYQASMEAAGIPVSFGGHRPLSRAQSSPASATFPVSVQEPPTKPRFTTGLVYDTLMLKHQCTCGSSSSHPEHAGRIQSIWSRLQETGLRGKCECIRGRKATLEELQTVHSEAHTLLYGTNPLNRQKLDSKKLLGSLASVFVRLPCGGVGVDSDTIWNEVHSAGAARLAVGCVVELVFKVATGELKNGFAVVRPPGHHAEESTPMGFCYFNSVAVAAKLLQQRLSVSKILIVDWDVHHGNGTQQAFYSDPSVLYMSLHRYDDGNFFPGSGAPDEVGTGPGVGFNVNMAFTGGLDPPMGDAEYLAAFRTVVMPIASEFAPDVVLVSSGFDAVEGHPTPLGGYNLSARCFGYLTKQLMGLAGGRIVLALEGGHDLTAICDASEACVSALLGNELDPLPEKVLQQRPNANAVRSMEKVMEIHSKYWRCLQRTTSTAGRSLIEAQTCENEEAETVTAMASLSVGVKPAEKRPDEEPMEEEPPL
Experimental: (§3) The Caliper HDAC Assay Buffer (acronym HAB, 1 liter) was prepared as follows:
(§4) Substrate B was prepared as 2 mM in 100% DMSO. Its final concentration in the assay for HDACs 4, 5, 7, 8, 9 is 2 μM.
(§5) LBH was used as quench inhibitor to stop the reaction at the end point.
IC50 values are in micromolar.
Data set [8] concerns the target HDAC5 (Homo sapiens (Human), UniProt Q9UQL6). The experiment in a line: Caliper HDAC enzymatic endpoint assay, HDAC5. As to conditions: Table 2C; read-out: HDAC5 IC50 after 0 hr preincubation. It counts as biochemical.
Experimental: as §3, §4, §5
IC50 values are in micromolar.
Data set [9] addresses HDAC6 (Homo sapiens (Human), UniProt Q9UBN7). The experiment in a line: Caliper HDAC enzymatic endpoint assay, HDAC6. It counts as biochemical. Particulars: Table 2C; read-out: HDAC6 IC50 after 0 hr preincubation.
Experimental: as §1, §2
Data set [10] addresses HDAC7 (Homo sapiens (Human), UniProt Q8WUI4). The experiment in a line: Caliper HDAC enzymatic endpoint assay, HDAC7. Format: biochemical. As to conditions: Table 2C; read-out: HDAC7 IC50 after 0 hr preincubation.
Experimental: as §3, §4, §5
IC50 values are in micromolar.
Data set [11] has as its target HDAC8 (Homo sapiens (Human), UniProt Q9BY41). The experiment in a line: Caliper HDAC enzymatic endpoint assay, HDAC8. As to conditions: Table 2C; read-out: HDAC8 IC50 after 0 hr preincubation. It counts as biochemical.
Experimental: as §3, §4, §5
IC50 values are in micromolar.
For data set [12], the target named is HDAC9 (Homo sapiens (Human), UniProt Q9UKV0). Nature of the data set: Caliper HDAC enzymatic endpoint assay, HDAC9. It counts as biochemical. Particulars: Table 2C; read-out: HDAC9 IC50 after 0 hr preincubation.
Experimental: as §3, §4, §5
IC50 values are in micromolar.
Data set [13] relates to INS-1E cells. The experiment in a line: Cytokine-induced beta-cell apoptosis, caspase-3 activity assay. Format: cell-based, rat. As to conditions: IL-1β, IFN-γ, TNF-α, 48 hours, 5 μM compound. As to the method: Compounds of the invention were evaluated for their ability to suppress cytokine-induced beta-cell apoptosis and palmitate and/or glucose-induced beta-cell apoptosis by inhibition of HDAC3. Assay protocols were as follows: Cell culture and reagents. […] Recombinant IL-1β, IFN-γ, and TNF-α were purchased from R&D Systems. Palmitate, D-glucose and fatty acids-free low endotoxin BSA were purchased from Sigma. Palmitate was solubilized in 90% ethanol, heated to 60° C. and used 1:100 dilution in media. Caspase-Glo 3/7 was from Promega and 3-(4,5-dimethylthiazol-2-yl)-2,5-diphenyltetrazolium bromide (MTT) was from Calbiochem. Antibodies for HDAC1, HDAC2, HDAC3, pJNK, JNK cleaved caspase-9 and secondary horseradish-peroxidase conjugated goat anti-mouse and anti-rabbit antibodies were from Cell Signaling. Antibody for beta-actin was from Sigma and antibody against CHOP (GADD153) from Abcam. HDAC inhibitors were purchased from Selleck Chemicals or synthesized in-house. Primers were from Integrated DNA Technologies, High Capacity cDNA RT kit and SYBR green master mix were purchased from Applied Biosystems. INS-1E cells were seeded at 5,000 cells/well using a Multidrop Combi (Thermo Labsystems) in white optical 384-well plates (Corning Life Sciences). After overnight incubation, medium was removed and 50 μL RPMI containing the treated compound, 1% FBS and either a combination of cytokines (10 ng/mL IL-1β, 50 ng/mL IFN-γ, 25 ng/mL TNF-α) or 0.5 mM sodium palmitate was added to every well. After two-day treatment, medium was removed and 20 μL Caspase-Glo 3/7 reagent was added. Luminescence was measured after a two-hour incubation using an Envision plate reader (PerkinElmer). […] The rat INS-1E cell line was simultaneously treated for 48 hours with a combination of pro-inflammatory cytokines IL-1β, IFN-γ, and TNF-α, and the indicated test compounds. […] Compound 9, a negative control, had no effect. […] FIGS. 9C and 9D show a dose-response analysis of HDAC inhibition in suppression of cytokine-induced beta-cell apoptosis. […] This could translate to a larger therapeutic window. […]

In data set [14] the target is T3, HDAC3.

Results on 4 molecules are retold here after patent US11377423B2, “Inhibitors of histone deacetylase” (The Broad Institute, Inc., priority 2012, dated 2022).

Chain of HDAC6 (Q9UBN7 whole entry): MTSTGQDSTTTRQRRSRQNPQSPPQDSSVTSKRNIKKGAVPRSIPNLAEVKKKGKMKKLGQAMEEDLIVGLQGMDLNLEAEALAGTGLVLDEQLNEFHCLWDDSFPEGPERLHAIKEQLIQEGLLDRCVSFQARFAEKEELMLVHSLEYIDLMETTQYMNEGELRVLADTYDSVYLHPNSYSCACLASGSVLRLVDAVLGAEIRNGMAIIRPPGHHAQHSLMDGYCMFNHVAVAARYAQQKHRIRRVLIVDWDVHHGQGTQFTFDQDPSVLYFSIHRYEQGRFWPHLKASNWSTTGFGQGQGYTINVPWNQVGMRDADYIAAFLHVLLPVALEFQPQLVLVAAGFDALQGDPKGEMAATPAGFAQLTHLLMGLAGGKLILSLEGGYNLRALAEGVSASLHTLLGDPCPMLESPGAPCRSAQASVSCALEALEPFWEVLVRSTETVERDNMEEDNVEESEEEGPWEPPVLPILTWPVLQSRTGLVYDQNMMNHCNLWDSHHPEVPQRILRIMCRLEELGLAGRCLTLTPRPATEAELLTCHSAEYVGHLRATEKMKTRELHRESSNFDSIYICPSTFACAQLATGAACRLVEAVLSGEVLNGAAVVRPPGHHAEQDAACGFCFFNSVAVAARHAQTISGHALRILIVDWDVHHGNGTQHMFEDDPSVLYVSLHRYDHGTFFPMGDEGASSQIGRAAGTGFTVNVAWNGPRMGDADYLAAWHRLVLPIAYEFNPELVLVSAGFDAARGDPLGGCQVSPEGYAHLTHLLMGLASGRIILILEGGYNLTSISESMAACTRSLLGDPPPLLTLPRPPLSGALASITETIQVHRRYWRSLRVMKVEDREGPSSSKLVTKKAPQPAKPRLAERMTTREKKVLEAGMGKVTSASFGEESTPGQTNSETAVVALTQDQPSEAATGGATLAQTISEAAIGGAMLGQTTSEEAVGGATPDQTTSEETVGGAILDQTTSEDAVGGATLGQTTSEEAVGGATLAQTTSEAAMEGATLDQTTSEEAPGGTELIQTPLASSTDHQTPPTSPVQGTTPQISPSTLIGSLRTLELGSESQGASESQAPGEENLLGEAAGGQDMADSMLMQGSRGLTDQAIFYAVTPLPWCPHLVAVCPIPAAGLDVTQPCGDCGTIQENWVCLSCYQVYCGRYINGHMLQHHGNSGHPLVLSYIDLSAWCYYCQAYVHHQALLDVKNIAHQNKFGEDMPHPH
Chain of HDAC5 (Q9UQL6 whole entry): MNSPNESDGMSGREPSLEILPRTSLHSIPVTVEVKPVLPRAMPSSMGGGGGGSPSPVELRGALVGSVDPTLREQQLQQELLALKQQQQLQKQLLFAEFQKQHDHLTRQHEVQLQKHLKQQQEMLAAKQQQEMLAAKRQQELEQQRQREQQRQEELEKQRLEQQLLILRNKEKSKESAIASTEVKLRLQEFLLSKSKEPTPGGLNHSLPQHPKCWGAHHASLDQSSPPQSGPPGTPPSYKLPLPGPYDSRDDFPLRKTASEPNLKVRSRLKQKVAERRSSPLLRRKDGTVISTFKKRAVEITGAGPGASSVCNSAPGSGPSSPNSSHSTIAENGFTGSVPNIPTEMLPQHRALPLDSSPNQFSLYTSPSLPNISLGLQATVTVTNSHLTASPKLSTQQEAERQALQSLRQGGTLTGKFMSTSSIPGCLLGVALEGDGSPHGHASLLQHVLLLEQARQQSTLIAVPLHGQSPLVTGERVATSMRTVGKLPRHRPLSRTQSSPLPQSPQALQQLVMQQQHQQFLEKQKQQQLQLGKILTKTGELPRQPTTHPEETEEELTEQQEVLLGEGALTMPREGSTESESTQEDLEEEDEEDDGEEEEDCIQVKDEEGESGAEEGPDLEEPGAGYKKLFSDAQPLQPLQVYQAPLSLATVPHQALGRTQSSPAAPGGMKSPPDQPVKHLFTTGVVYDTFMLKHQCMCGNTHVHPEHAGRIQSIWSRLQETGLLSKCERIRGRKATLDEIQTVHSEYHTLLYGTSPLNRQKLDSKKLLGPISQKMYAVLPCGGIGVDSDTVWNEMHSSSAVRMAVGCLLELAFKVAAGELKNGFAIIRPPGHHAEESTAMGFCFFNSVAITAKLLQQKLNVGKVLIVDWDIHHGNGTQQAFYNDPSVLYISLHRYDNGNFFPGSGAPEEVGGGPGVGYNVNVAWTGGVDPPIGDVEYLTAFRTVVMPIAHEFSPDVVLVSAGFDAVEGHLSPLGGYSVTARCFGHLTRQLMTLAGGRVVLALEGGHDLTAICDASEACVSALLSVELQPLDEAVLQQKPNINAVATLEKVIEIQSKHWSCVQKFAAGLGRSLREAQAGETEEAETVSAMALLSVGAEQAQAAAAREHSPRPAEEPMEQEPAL

`CC(=O)Nc1ccc(C(=O)Nc2ccccc2N)cc1` [CI-994, 4-(Acetylamino)-N-(2-aminophenyl)benzamide, reference compound]: the “effect on megakaryocyte progenitor cell growth at 1 μM” value in data set [1] (1 μM) is listed as “significant toxic effect on cell growth”. The “toxicity to human megakaryocyte progenitors at higher concentrations” value in [1] (particularly at 10 μM and 20 μM) was “highly toxic”. For the same molecule, the T1/2 turned out to be 190 min in data set [2] and 74 min in data set [3].
On to `Nc1ccccc1NC(=O)c1ccc(CNC(=O)OCc2cccnc2)cc1` [MS-275, reference compound], for which the T1/2 is listed as 63 min in data set [2] and 106 min in data set [3].
As for `CC(=O)Nc1ccc(C(=O)Nc2ccc(C)cc2N)cc1` [Compound 9, 4-acetamido-N-(2-amino-4-methylphenyl)benzamide], the IC50 in data set [4], in data set [5], in data set [6], in data set [7], in data set [8] and in data set [9] was over 33 µM each time. The IC50 in data set [10], in data set [11] and in [12] was over 33 µM throughout. Besides, the “suppression of cytokine-induced beta-cell apoptosis (caspase activity)” value in [13] is listed as “no effect”. Also, the “effect on growth and viability of human megakaryocyte progenitor cells” value in data set [1] (0.1, 1, 10 and 20 μM, relative to DMSO treated cells) was “no significant effect on growth and viability”.
As to `O=C(CCCCCCC(=O)Nc1ccccc1)NO` [SAHA, N1-hydroxy-N8-phenyl-octanediamide, reference compound], the T1/2 in data set [14] and in data set [3] was under 4 min each time.
